From US20250051278A1, “[…]” (Reunion Neuroscience, Inc., priority 2021, published 2025)

Assays:
[1] = Prodrug hydrolysis in mouse plasma at 37° C; type: in vitro ADME; details: 1.0 ug/mL
Protocol: (§1) Pooled mixed gender human plasma (2 ml), mouse plasma, rat plasma and dog plasma were equilibrated at 37° C. The compound of example 9 was added so as to achieve a concentration of 1.0 ug/mL. Aliquots (50 uL) of the mixture were withdrawn at timed intervals (0, 0.004, 0.5, 1, 2 and 4 hours) and quenched with 200 μL of methanol/acetonitrile (1:1). The samples were vortexed and stored at −80° C. until analysis. Assays were done in triplicate. Control samples were done in phosphate buffered saline (PBS, pH 7.4) and simulated gastric fluid (SGF, pH 2). Analysis of samples as performed by HPLC-MS to determine the amounts of prodrug and drug in each sample tested. Table 1 provides the mean concentrations of prodrug remaining at different time points of the experiment.

[2] = Prodrug hydrolysis in rat plasma at 37° C; type: in vitro ADME; details: 1.0 ug/mL
Protocol: as §1

[3] = Prodrug hydrolysis in dog plasma at 37° C; type: in vitro ADME; details: 1.0 ug/mL
Protocol: as §1

[4] = Prodrug hydrolysis in pooled mixed gender human plasma at 37° C; type: in vitro ADME; details: 1.0 ug/mL
Protocol: as §1

[5] = Control hydrolysis in simulated gastric fluid (SGF, pH 2); type: physicochemical; details: SGF (pH2)
Protocol: as §1

[6] = Control hydrolysis in phosphate buffered saline (PBS, pH 7.4); type: physicochemical; details: PBS (pH7)
Protocol: as §1

[7] = Solubility in water; type: physicochemical; details: thermodynamic from solid; HCl salt solid dissolved in water
Protocol: The structure was confirmed by NMR. Purity was determined by HPLC (>97%). The solid was resuspended in 1M HCl-dioxane to form the HCl salt which was filtered, washed with ether and dried. Yield (>95%, purity >95%; DSC endotherm 174C). The solid could be dissolved in water up to 50 mg/ml and lyophilized to form a white “cake”.

[8] = Subjective effects in human volunteers (standardized questionnaires); type: in vivo
Protocol: The compound from example 6 (N,N diisopropyltryptamine-4-glutarate) is administered to human volunteers by subcutaneous injection of a sterile solution (1 mg/ml) at a dosage of 0.1-0.6 mg/kg. Blood samples are taken at 5, 15, 30, 45, 60, 120, 240 and 480 min and 24 h. Samples are analyzed by LCMS for drug and prodrug. Subjective effects are measured using standardized questionnaires.
The compound from example 2 (4-hemisuccinate of 4-OH-DiPT) is administered to human volunteers by oral ingestion of a tablet containing 50 mg of the prodrug. Blood samples are taken at 5, 15, 30, 45, 60, 120, 240 and 480 min and 24 h. Samples are analyzed by LCMS for drug and prodrug. Subjective effects are measured using standardized questionnaires.

[9] = Use in treatment of a human patient suffering depression; type: in vivo; details: i.m. or s.c. injection ca. 25 mg or oral ca. 50-200 mg
Protocol: The compound of example 6 (N,N diisopropyltryptamine-4-glutarate) is administered by i.m. or s.c. injection (ca. 25 mg; 0.4-0.5 mg/kg) to a human patient suffering depression, or by oral administration (ca. 50-200 mg; 0.8-3.2 mg/kg) with tablets. In another example of use, the compound of example 6 (4-hemiglutarate of 4-OH-DiPT) is similarly administered. Prior to the dosing session, the patient is qualified for the experience by measurement of depression scores, screened for exclusions (e.g. history of psychoses, unfavorable heart condition, pregnancy) and finally, the patient is encouraged to formulate an intent for the dosing session. Dosing is performed in a quiet clinic setting with the patient resting comfortably in an inclined, but unrestrained, position to avoid falls. The patients' eyes are covered, and music is applied. The drug is administered. After 4 h, the patient reports no longer feeling the effects of the drug and is asked to sit up while under supervision. Feeling normal, the patient is allowed to stand (supervised) and feeling in control, is allowed to move around. One hour later, the patient is discharged. Later by 24 h, the patient returns to the clinic to meet with a psychotherapist to recount the session. The patient records a depression score via questionnaire and is again discharged. […]

[10] = Pharmacokinetics in rats (intravenous and subcutaneous injection); type: in vivo; details: i.v. and s.c., 1.4-2 mg/kg, LCMS, rapidly converted to the active form
Protocol: The compound from example 9 was administered to rats by injection (intravenous and subcutaneous) with a sterile solution (2 mg/ml) at a rate of 1.4-2 mg/kg. Blood samples were taken at 15, 30, 45, 60, 120, 240 min and 360 min and analyzed by LCMS for drug and prodrug. PK profile for the prodrug and active species were obtained and relative bioavailability was determined for each of the routes of administration.
Pharmacokinetics of 1.34 mg/ml 4-HO-DiPT HCl administered by intravenous or subcutaneous injection were performed in parallel under identical conditions as above. […] Immediately obvious is the increased variability with the active species when administered s.c. and intravenous administrations.

[11] = Head Twitch Response (HTR) or Wet Dog Shakes (WDS) by visual observation; type: in vivo; details: rats; highest intensity of head twitch at the Tmax of the PK profile
Protocol: In some cases, Head Twitch Response (HTR) or Wet Dog Shakes (WDS) were recorded by visual observation and counting of the relevant muscle twitches.

CC(C)N(CCc1c[nH]c2cccc(OC(=O)CCCC(=O)O)c12)C(C)C [Example 6, N,N diisopropyltryptamine-4-glutarate]
Percentage of remaining prodrug ([1]; 0 h): 100%
Percentage of remaining prodrug ([1]; 0.004 h): 0%
Percentage of remaining prodrug ([1]; 0.5 h): 0%
Percentage of remaining prodrug ([1]; 1 h): 0%
Percentage of remaining prodrug ([1]; 2 h): 0%
Percentage of remaining prodrug ([1]; 4 h): 0%
Percentage of remaining prodrug ([2]; 0 h): 100%
Percentage of remaining prodrug ([2]; 0.004 h): 0%
Percentage of remaining prodrug ([2]; 0.5 h): 0%
Percentage of remaining prodrug ([2]; 1 h): 0%
Percentage of remaining prodrug ([2]; 2 h): 0%
Percentage of remaining prodrug ([2]; 4 h): 0%
Percentage of remaining prodrug ([3]; 0 h): 100%
Percentage of remaining prodrug ([3]; 0.004 h): 100%
Percentage of remaining prodrug ([3]; 0.5 h): 87%
Percentage of remaining prodrug ([3]; 1 h): 79%
Percentage of remaining prodrug ([3]; 2 h): 64%
Percentage of remaining prodrug ([3]; 4 h): 39%
Percentage of remaining prodrug ([4]; 0 h): 100%
Percentage of remaining prodrug ([4]; 0.004 h): 100%
Percentage of remaining prodrug ([4]; 0.5 h): 3.0%
Percentage of remaining prodrug ([4]; 1 h): 0.23%
Percentage of remaining prodrug ([4]; 2 h): 0%
Percentage of remaining prodrug ([4]; 4 h): 0%
Percentage of remaining prodrug ([5]; 0 h): 100%
Percentage of remaining prodrug ([5]; 0.004 h): 100%
Percentage of remaining prodrug ([5]; 0.5 h): 100%
Percentage of remaining prodrug ([5]; 1 h): 100%
Percentage of remaining prodrug ([5]; 4 h): 101%
Percentage of remaining prodrug ([6]; 0 h): 100%
Percentage of remaining prodrug ([6]; 4 h): 93%
solubility [7]: ≤ 50 mg/mL
Subjective effects: intensity of psychoactivity ([8]; subcutaneous injection, 0.1-0.6 mg/kg): correlates with blood levels
Time after which the patient reports no longer feeling the effects of the drug [9]: 4 h

CC(C)N(CCc1c[nH]c2cccc(OC(=O)CCCC(=O)O)c12)C(C)C.Cl [Example 9, HCl salt of N,N diisopropyltryptamine-4-glutarate]
Prodrug in blood samples after injection [10]: not observed

CC(C)N(CCc1c[nH]c2cccc(O)c12)C(C)C [Example 4-HO-DIPT, 4-hydroxy-N,N-diisopropyltryptamine]
Intensity of the HTR versus plasma concentration of 4-HO-DIPT [11]: proportional to the plasma concentration

CC(C)N(CCc1c[nH]c2cccc(OC(=O)CCC(=O)O)c12)C(C)C [Example 2, N,N diisopropyltryptamine-4-succinate]
Subjective effects: intensity of psychoactivity ([8]; oral tablet 50 mg): correlates with blood levels
